Where two headings read alike, the source gives them in different places.
Experiments:
[1] = test system: platelet activating factor (PAF); experiment: PAF Induced Bronchoconstriction Assay; format: in vivo, guinea pig; details: for ED50: Cavia porcellus, Platelet, read-out: PAF-induced bronchoconstriction ID50; for antagonist activity against bronchoconstriction induced by PAF or LTD4: administered IV, statement covers both PAF and LTD4; for PAF-induced bronchoconstriction, percent inhibition: 10 mg/kg
Protocol: (§1) The relative potency (ID50 values) of test compounds administered by the intravenous and oral route was determined by administering increasing doses of test compound. For determination of the time course of inhibition for various compounds, the time between administration of compound and challenge with LTD was varied. The time course of activity was calculated as the time when inhibition decreased to 40%.
Male animals (Hartlet Strain, 400-500 g were anesthetized with urethane (2 g/kg, i.p.). Each animals' trachea was cannulated and the guinea pigs were respirated using a Harvard small animal rodent respirator (3.0 cc stroke volume, 40 breaths per min.). Tracheal pressure was recorded from a cannula inserted in the trachea and connected to a Statham pressure transducer.
The jugular vein was cannulated for administering compounds. Spontaneous breathing was arrested with succinylcholine (1.2 mg/kg, i.v.) administered 2 minutes prior to intravenous injection of platelet activating factor PAF).
For the intravenous testing, the guinea pig is given a 1-minute pretreatment with propranolol at a dose of 0.1 mg/kg intravenously. The test compound is administered with a 1 minute pretreatment prior to intravenous challenge with PAF. The animal is then challenged with a 1 μg/kg intravenous dose of PAF and the change in tracheal pressure is measured.
For the oral testing, the procedure includes a 2-hour pretreatment period with the test compound administered through an oral gavage tube. Propranolol or succinylcholine and PAF are administered intravenously, and the change in tracheal pressure measured.
The change in tracheal pressure is determined by subtracting the steady state baseline achieved after administration of succinylcholine from the peak bronchoconstriction seen after challenge with PAF. The mean is calculated for each test compound and compared to the mean of the control animals to give the percent inhibition of bronchoconstriction. The standard error is calculated as the standard error of the mean.
(§2) The compounds listed below were evaluated for antagonist activity against bronchoconstriction induced by PAF or LTD4. Comparative data for a known LTD4 antagonist (Compound B) and a known PAF antagonist (Compound A) are also shown.
(§3) Compounds C, D and E were administered orally at a dose of 10 mg/kg.

[2] = test system: leukotriene D4 (LTD4); experiment: Leukotriene-induced bronchoconstriction in guinea pigs, in vivo leukotriene D4 (LTD) antagonist test; design: species or system guinea pig (Hartley strain); details: for ED50: Cavia porcellus, read-out: LTD4-induced bronchoconstriction ID50
Protocol: Male guinea pigs (Hartley strain Charles River) weighing 300-500 g were anesthetized with urethane (~2 g/kg) intraperitoneally and a polyethylene cannula was inserted into the jugular vein for intravenous drug administration. Tracheal pressure (cm of H2 O) was recorded from a Statham pressure transducer (P 32 AA). Propranolol was administered 5 minutes prior to challenge with LTD. Two minutes later spontaneous breathing was arrested with succinylcholine chloride (1.2 mg/kg) administered intravenously, and the animals were ventilated with a Harvard (Model #680) small animal respirator set at 40 breaths/min and 4.0 cc stroke volume. Control vehicle or test drug was administered through the cannula into the jugular vein 1 minute before the animals were challenged intravenously with a maximum constrictory dose of LTD (25 μg/kg) given intravenously. The change in tracheal pressure was averaged for control and drug-treated animals and percent inhibition was calculated. For determination of oral activity, animals were dosed with test compound or vehicle two hours prior to challenge with LTD (25 μg/kg, i.v.).
as §1, §2, §3

[3] = 1 min, iv, 1 minute pretreatment, PAF 1 μg/kg i.v.
[4] = 1 min, iv, 1 minute before LTD 25 μg/kg i.v.
[5] = po, 10 mg/kg, two hours prior to LTD 25 μg/kg i.v.

| SMILES | ED50 [1, 3] [mg/kg] | ED50 ([1]; po, 2-hour pretreatment) [mg/kg] | LTD4-induced bronchoconstriction ID50 ([2]; iv, 1 minute before LTD 25 μg/kg i.v.) | LTD4-induced bronchoconstriction ID50 ([2]; po, two hours prior to LTD 25 μg/kg i.v.) | PAF-induced bronchoconstriction ID50 ([1]; iv, 1 minute pretreatment, PAF 1 μg/kg i.v.) | PAF-induced bronchoconstriction ID50 ([1]; po, 2-hour pretreatment) | ED50 [2, 4] [mg/kg] | ED50 ([2]; 2 h, po, two hours prior to LTD 25 μg/kg i.v.) [mg/kg] | antagonist activity against bronchoconstriction induced by PAF or LTD4 [1] | PAF-induced bronchoconstriction, percent inhibition ([1]; po, 2-hour pretreatment) [%] | LTD4-induced bronchoconstriction, percent inhibition [2, 5] [%] | LTD4-induced bronchoconstriction, percent inhibition ([2]; iv column, iv dose not given) [%] |
| --- | --- | --- | --- | --- | --- | --- | --- | --- | --- | --- | --- | --- |
| Cc1nnc2n1-c1sc(C#CCn3c(=O)c4ccccc4c4ccccc43)cc1C(c1ccccc1Cl)=NC2 [Compound A, 5-{3-[4-(2-Chlorophenyl)-9-methyl-6H-thieno[3,2f][1,2,4]triazolo[4,3-a][1,4]diazepin-2-yl]-2-propynyl}phenanthridin-6(5H)-one, reference compound] | 0.02 | 0.12 | Not Active | Not Active | – | – | – | – | – | – | – | – |
| CCC(CC)(CC(=O)Nc1cccc(/C=C/c2nc(C3CCC3)cs2)c1)C(=O)O [Compound B, (E)-4-[3-[2-(4-Cyclobutyl-2-thiazolyl)ethenyl]phenylamino]2,2-diethyl-4-oxobutanoic acid, reference compound] | – | – | – | – | Not Active | Not Active | 0.13 | 0.12 | – | – | – | – |
| Cc1nnc2n1-c1sc(CCc3ccc(CC(=O)Nc4cccc(/C=C/c5nc(C6CCC6)cs5)c4)c(C(=O)O)c3)cc1C(c1ccccc1Cl)=NC2.O [Compound C, (E)-5-[2-[4-(2-chlorophenyl)-9-methyl-6H-thieno-[3,2-f][1,2,4]triazolo[4,3-a][1,4]diazepin-2-yl]ethyl]-2-[2-[3-[2-(4-cyclobutyl-2-thiazolyl)ethenyl]phenylamino]-2-oxoethyl]-benzoic acid monohydrate] | 0.02 | – | – | – | – | – | 0.01 | – | very potent dual acting antagonists | 37 ± 1 | 48 ± 8 | – |
| C=CCNC(=O)c1cc(CCc2cc3c(s2)-n2c(C)nnc2CN=C3c2ccccc2Cl)ccc1CC(=O)Nc1cccc(/C=C/c2nc(C3CCC3)cs2)c1 [Compound D, (E)-4-[2-[4-(2-Chlorophenyl)-9-methyl-6H-thieno-[3,2-f][1,2,4]triazolo[4,3-a][1,4]diazepin-2-yl]ethyl]-N-[3-[2-(4-cyclobutyl-2-thiazolyl)ethenyl]phenyl]-2-[(2-propenylamino)-carbonyl]benzeneacetamide] | 0.02 | – | – | – | – | – | 0.08 | – | very potent dual acting antagonists | 65 ± 1 | 44 ± 15 | – |
| CCOC(=O)c1cc(CCc2cc3c(s2)-n2c(C)nnc2CN=C3c2ccccc2Cl)ccc1CC(=O)Nc1cccc(/C=C/c2nc(C3CCC3)cs2)c1 [Compound E, (E)-5-[2-[4-(2-Chlorophenyl)-9-methyl-6H-thieno-[3,2-f][1,2,4]triazolo[4,3-a][1,4]diazepin-2-yl]ethyl]-2-[2-[3-[2-(4-cyclobutyl-2-thiazolyl)ethenyl]phenylamino]-2-oxoethyl]-benzoic acid ethyl ester] | 0.02 | – | – | – | – | – | – | – | – | 14 ± 9 | – | 46 ± 7 |

From patent US5302590A, “Compounds useful as dual antagonists of platelet activating factor and leukotriene D4” (Hoffmann-La Roche Inc., priority 1992, dated 1994)
